Assay results as given in US10544154B2, “Opioid receptor antagonist prodrugs” (Nirsum Laboratories, Inc., priority 2017, dated 2020).

Key:
[1] = oral dosing; cited from earlier work
[2] = Plasma stability, cynomolgus monkey plasma (HPLC-MS); type: in vitro ADME; conditions: 2 μM, 37° C., 0 min
Protocol: (§1) Plasma stability determination of the test compounds in rat, dog, cynomolgus monkey and human plasma is performed using HPLC-MS. For rat, incubations are carried out in 96-well polypropylene plates in 5 aliquots of 70 μL each (one for each time point). […] Five time points are analyzed (0, 15, 120, 480 and 1440 min). […] All incubations are performed in duplicates. The samples are analyzed by HPLC-MS. The percentage of parent compound remaining after incubation in plasma is determined.

[3] = Plasma stability, human plasma (HPLC-MS); type: in vitro ADME; conditions: 2 μM, 37° C.
Protocol: as §1

[4] = Liver S9 fraction stability, human; type: in vitro ADME; conditions: 2 μM, 1.0 mg/ml S9 protein, 37° C.
Protocol: (§2) Liver S9 fraction stability determination of the test compounds in dog, cynomolgus monkey and human is performed using HPLC-MS. Test compound (2 μM, 0.1% DMSO, 1% Methanol final concentration) was assessed for stability in a 50 μl phosphate buffer containing 1.0 mg/ml S9 protein from each of the three species and 5 mM D-saccharic acid-1, 4-lactone. Samples were incubated at 37° C. for 60 minutes and the % compound remaining was assessed.

[5] = Plasma stability, dog plasma (HPLC-MS); type: in vitro ADME; conditions: 2 μM, 37° C.
Protocol: Plasma stability determination of the test compounds in rat, dog, cynomolgus monkey and human plasma is performed using HPLC-MS. For rat, incubations are carried out in 96-well polypropylene plates in 5 aliquots of 70 μL each (one for each time point). […] Five time points are analyzed (0, 15, 120, 480 and 1440 min). For dog, monkey and human, test compounds (2 μM, final solvent concentration 1%) were also incubated at 37° C. and analyzed at five time points (0, 10, 30, 60 and 120 min). All incubations are performed in duplicates. The samples are analyzed by HPLC-MS. The percentage of parent compound remaining after incubation in plasma is determined.

[6] = Plasma stability, rat plasma (HPLC-MS); type: in vitro ADME; conditions: 10 μM, 37° C.
Outline: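 Duplicate incubations; HPLC-MS quantitation of remaining parent (%). Rat plasma: 0/15/120/480/1440 min. Dog, cyno, human plasma: 2 μM cpd, 1% solvent, 37 °C, 0/10/30/60/120 min.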

[7] = Liver S9 fraction stability, cynomolgus monkey; type: in vitro ADME; conditions: 2 μM, 1.0 mg/ml S9 protein, 37° C.
Protocol: as §2

[8] = Clinical observations for dogs in pharmacokinetic studies; type: in vivo, Beagle dogs; conditions: 48 mg/kg DeepIM
Outline: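 Dogs sedated with propofol 6 mg/kg IV, then given deep IM injection (≥2.5 cm into quadriceps or biceps femoris) of 400 mg base equivalents/ml in sesame oil + 1% benzyl alcohol, unless otherwise specified; vehicle injected contralaterally. Dose volume set by dosing-day body weight; weights recorded weekly.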

[9] = Liver S9 fraction stability, dog; type: in vitro ADME; conditions: 2 μM, 1.0 mg/ml S9 protein, 37° C.
Protocol: as §2

[10] = Rat pharmacokinetic studies, intramuscular administration; type: in vivo, male Sprague Dawley Rats; conditions: rat IM 0.80 mg/kg, saline
Protocol: The purpose of this study is to determine the pharmacokinetics of test compounds in plasma, following intramuscular administration to male Sprague Dawley Rats (n=3, unless otherwise specified).
The dose formulation of 400 mg base equivalents/ml in sesame oil+1% benzyl alcohol (unless otherwise specified) was administered by intramuscular injection. The dose volume was determined by the animals' body weight determined on the morning of dosing day.
Each collected blood sample was centrifuged for 4 minutes at 4° C. and 10000 rpm for plasma collection. Plasma was collected and transferred into a pre-labeled PP tube in dry ice at each time point and precipitated immediately using ACN at a ratio of 1:4 (plasma:ACN). Centrifuged again (10 minutes, 12000 rpm) and obtain the supernatant.
LC-MS/MS methods for the quantitative determination of test compound in biological matrix were developed. […] The sample analysis was performed concurrently with a set of calibration standards and two sets of QC samples using the LC-MS/MS method.
Plasma concentration versus time data was analyzed by non-compartmental approaches using the Phoenix WinNonlin 6.3 software program. Cmax, Tmax, T1/2, AUC(0-t), AUC(0-inf), MRT(0-t), MRT(0-inf) and graphs of plasma concentration versus time profile were prepared.

SMILES: Oc1ccc2c3c1O[C@H]1[C@H](O)CC[C@@]4(O)[C@@H](C2)N(CC2CC2)CC[C@]314 [6-β-naltrexol]
- mean elimination half-life [1]: thirteen

SMILES: C=C1CC[C@@]2(O)C3Cc4ccc(OC(=O)OCCCCCCCCCCCC)c5c4[C@@]2(CCN3CC2CC2)[C@H]1O5 [Compound 6, (4aS,7aS,12bS)-3-(cyclopropylmethyl)-4a-hydroxy-7-methylene-2,3,4,4a,5,6,7,7a-octahydro-1H-4,12-methanobenzofuro[3,2-e]isoquinolin-9-yl dodecyl carbonate]
- % remaining at time point in minutes, 0 min [2]: 100%
- % remaining at time point in minutes, 0 min [3]: 100%
- Liver S9 Fraction Stability, % remaining at 60 minutes, Human [4]: 5.3%
- % remaining at time point in minutes, 0 min [5]: 100%
- % remaining at time point in minutes, 0 min [6]: 100%
- % remaining at time point in minutes, 120 min ([6]; 120 min): 7.6%
- % remaining at time point in minutes, 480 min [6]: 4%
- % remaining at time point in minutes, 1440 min [6]: 1.6%
- Liver S9 Fraction Stability, % remaining at 60 minutes, Monkey [7]: 0%

SMILES: C=C1CC[C@@]2(O)C3Cc4ccc(OCOC(=O)OCCCCCCCCCCCC)c5c4[C@@]2(CCN3CC2CC2)[C@H]1O5 [Compound 24, (((4aS,7aS,12bS)-3-(cyclopropylmethyl)-4a-hydroxy-7-methylene-2,3,4,4a,5,6,7,7a-octahydro-1H-4,12-methanobenzofuro[3,2-e]isoquinolin-9-yl)oxy)methyl dodecyl carbonate]
- % remaining at time point in minutes, 0 min [2]: 100%
- % remaining at time point in minutes, 0 min [3]: 100%
- % remaining at time point in minutes, 15 min ([3]; 15 min): 94%
- Liver S9 Fraction Stability, % remaining at 60 minutes, Human [4]: 3.5%
- % remaining at time point in minutes, 0 min [5]: 100%
- BT ([8]; dog D1501, 24 hr): 38.8
- BT ([8]; dog D1501, 96 hr): limb/BT: 39.2
- BT ([8]; dog D1501, 120 hr): 39.2
- BT ([8]; dog D1501, 144 hr): 39.6
- BT ([8]; dog D1501, 192 hr): calf/BT: 39.0
- BT ([8]; dog D1501, 216 hr): 8 * 5 cm/BT: 39.0
- BT ([8]; dog D1501, 240 hr): 8 * 5 cm/BT: 39.0
- BT ([8]; dog D1501, 264 hr): 6 * 5 cm/BT: 38.9
- BT ([8]; dog D1501, 288 hr): 6 * 5 cm/BT: 38.9
- BT ([8]; dog D1501, […]): 39.6
- BT ([8]; dog D1502, 96 hr): groin/red/BT: 38.3
- BT ([8]; dog D1502, 120 hr): groin/red/BT: 38.7
- BT ([8]; dog D1502, 144 hr): groin/red/BT: 38.3
- BT ([8]; dog D1502, 192 hr): groin/red/BT: 38.5
- BT ([8]; dog D1502, 216 hr): groin/red/BT: 38.4
- BT ([8]; dog D1502, 240 hr): leg/red/BT: 38.9
- BT ([8]; dog D1502, 264 hr): leg/red/BT: 38.3
- BT ([8]; dog D1502, 288 hr): leg/red/BT: 38.5
- BT ([8]; dog D1502, […]): groin/red/BT: 38.4
- BT ([8]; third dog (head prints D1502), 144 hr): 8 * 8 cm/BT: 39.5
- BT ([8]; third dog (head prints D1502), 192 hr): 8 * 8 cm/BT: 38.0
- BT ([8]; third dog (head prints D1502), 216 hr): 8 * 8 cm/BT: 38.8
- BT ([8]; third dog (head prints D1502), 240 hr): 8 * 8 cm/BT: 39.2
- BT ([8]; third dog (head prints D1502), 264 hr): 8 * 8 cm/BT: 38.9
- BT ([8]; third dog (head prints D1502), 288 hr): 8 * 8 cm/BT: 38.8
- BT ([8]; third dog (head prints D1502), […]): 8 * 8 cm/BT: 39.3
- % remaining at time point in minutes, 0 min [6]: 100%
- % remaining at time point in minutes, 15 min ([6]; 15 min): 32%
- % remaining at time point in minutes, 480 min [6]: 8.2%
- % remaining at time point in minutes, 1440 min [6]: 3%
- Liver S9 Fraction Stability, % remaining at 60 minutes, Monkey [7]: 3%
- Liver S9 Fraction Stability, % remaining at 60 minutes, Dog [9]: 3.6%

SMILES: C=C1CC[C@@]2(O)[C@H]3Cc4ccc(O)c5c4[C@@]2(CCN3CC2CC2)[C@H]1O5.Cl [Nalmefene HCl-IR]
- AUC0-inf (ng · h/mL) nalmefene [10]: 66.0 ng·h/mL
- Terminal Half-life t1/2 (hour) nalmefene [10]: 0.87 h
